Literature values as cited in patent US20210369631A1, “A LIPID-POLYMER HYBRID NANOPARTICLE” (NANOBRID INNOVATIONS PRIVATE LIMITED, priority 2019, published 2021).

O=C(CCCCCCC(=O)Nc1ccccc1)NO [Vorinostat]
log P: 1.44

CCC(=O)O[C@]1(C(=O)CCl)[C@@H](C)C[C@H]2[C@@H]3CCC4=CC(=O)C=C[C@]4(C)[C@@]3(F)[C@@H](O)C[C@@]21C [clobetasol propionate]
log P: 3.49

COC1=C(OC)C(=O)C(C/C=C(\C)CC/C=C(\C)CC/C=C(\C)CC/C=C(\C)CC/C=C(\C)CC/C=C(\C)CC/C=C(\C)CC/C=C(\C)CC/C=C(\C)CCC=C(C)C)=C(C)C1=O [coenzyme Q10]
log P: 10
